Experimental data published in patent publication US4011307A, “Production of ^203 Pb-tris-hydroxymethyl amino methane” (The United States of America as represented by the United …, priority 1976, dated 1977).

How the values were obtained:
tumors = conditions: previous attempts reported; cited from earlier work
melanomas, tumors = assay: Localization / tissue distribution study in tumor bearing animals; type: in vivo, mice and hamsters
Description: The ^203 Pb-tris as described herein was injected in a relatively large number of mice and hamsters which were tumor bearing animals.

[1] = system: tissues of hamsters with eye melanoma; assay: Distribution of carrier-free lead-203 tris in tissue at various times; type: in vivo, hamster
Description: The ^203 Pb-tris as described herein was injected in a relatively large number of mice and hamsters which were tumor bearing animals. […]

[2] = Toxicity effects from the presence of lead in the blood stream; type: in vivo; conditions: near carrier-free lead-203 complexed with tris

Substance: lead
- Outcome of previous attempts to use lead as agent for the treatment of tumors (tumors): apparently failed to produce useful results due to the toxicity of lead in the bloodstream

Substance: Lead-203 tris-hydroxymethyl aminomethane
- Ability to localize in melanomas (melanomas, tumors; extensive studies): has the ability to localize in melanomas, especially those of the eye
- Uptake of ^203 Pb by the tumors (melanomas, tumors; tumor bearing mice and hamsters, injected, tissue distribution): selective uptake by the tumors
- Distribution, Blood ([1]; Time 1, 60 min): 3.870 Percent Uptake per Gram of Tis
- Distribution, Blood ([1]; Time 3, 180 min): 3.635 Percent Uptake per Gram of Tis
- Distribution, Blood ([1]; Time 6, 360 min): 5.847 Percent Uptake per Gram of Tis
- Distribution, Blood ([1]; Time 24, 1440 min): 3.007 Percent Uptake per Gram of Tis
- Distribution, Blood ([1]; Time 72, 4320 min): 3.792 Percent Uptake per Gram of Tis
- Distribution, Blood ([1]; Time 144, 8640 min): 0.852 Percent Uptake per Gram of Tis
- Distribution, Bone ([1]; Time 1, 60 min): 3.977 Percent Uptake per Gram of Tis
- Distribution, Bone ([1]; Time 3, 180 min): 3.991 Percent Uptake per Gram of Tis
- Distribution, Bone ([1]; Time 6, 360 min): 5.320 Percent Uptake per Gram of Tis
- Distribution, Bone ([1]; Time 24, 1440 min): 5.342 Percent Uptake per Gram of Tis
- Distribution, Bone ([1]; Time 72, 4320 min): 9.761 Percent Uptake per Gram of Tis
- Distribution, Bone ([1]; Time 144, 8640 min): 5.757 Percent Uptake per Gram of Tis
- Distribution, Choroid ([1]; Time 1, 60 min): 1.109 Percent Uptake per Gram of Tis
- Distribution, Choroid ([1]; Time 3, 180 min): 0.950 Percent Uptake per Gram of Tis
- Distribution, Choroid ([1]; Time 6, 360 min): 0.337 Percent Uptake per Gram of Tis
- Distribution, Choroid ([1]; Time 24, 1440 min): 0.361 Percent Uptake per Gram of Tis
- Distribution, Choroid ([1]; Time 72, * 4 animals, 4320 min): 0.127 Percent Uptake per Gram of Tis
- Distribution, Choroid ([1]; Time 144, 8640 min): 0.131 Percent Uptake per Gram of Tis
- Distribution, Cornea ([1]; Time 1): 0.834 Percent Uptake per Gram of Tis
- Distribution, Cornea ([1]; Time 3): 0.173 Percent Uptake per Gram of Tis
- Distribution, Cornea ([1]; Time 6): 0.891 Percent Uptake per Gram of Tis
- Distribution, Cornea ([1]; Time 24): 0.200 Percent Uptake per Gram of Tis
- Distribution, Cornea ([1]; Time 72, * 4 animals): 0.084 Percent Uptake per Gram of Tis
- Distribution, Cornea ([1]; Time 144): 0.062 Percent Uptake per Gram of Tis
- Distribution, Gonads ([1]; Time 1, 60 min): 2.076 Percent Uptake per Gram of Tis
- Distribution, Gonads ([1]; Time 3, 180 min): 0.238 Percent Uptake per Gram of Tis
- Distribution, Gonads ([1]; Time 6, 360 min): 0.663 Percent Uptake per Gram of Tis
- Distribution, Gonads ([1]; Time 24, 1440 min): 0.164 Percent Uptake per Gram of Tis
- Distribution, Gonads ([1]; Time 144, 8640 min): 0.079 Percent Uptake per Gram of Tis
- Distribution, Intestines ([1]; Time 1, 60 min): 0.841 Percent Uptake per Gram of Tis
- Distribution, Intestines ([1]; Time 3, 180 min): 0.653 Percent Uptake per Gram of Tis
- Distribution, Intestines ([1]; Time 6, 360 min): 1.593 Percent Uptake per Gram of Tis
- Distribution, Intestines ([1]; Time 24, 1440 min): 1.664 Percent Uptake per Gram of Tis
- Distribution, Intestines ([1]; Time 72, * 4 animals, 4320 min): 2.064 Percent Uptake per Gram of Tis
- Distribution, Intestines ([1]; Time 144, 8640 min): 0.217 Percent Uptake per Gram of Tis
- Distribution, Kidney ([1]; Time 1, 60 min): 25.32 Percent Uptake per Gram of Tis
- Distribution, Kidney ([1]; Time 3, 180 min): 18.156 Percent Uptake per Gram of Tis
- Distribution, Kidney ([1]; Time 6, 360 min): 17.703 Percent Uptake per Gram of Tis
- Distribution, Kidney ([1]; Time 24, 1440 min): 10.508 Percent Uptake per Gram of Tis
- Distribution, Kidney ([1]; Time 72, 4320 min): 17.443 Percent Uptake per Gram of Tis
- Distribution, Kidney ([1]; Time 144, 8640 min): 3.904 Percent Uptake per Gram of Tis
- Distribution, Lens ([1]; Time 1, 60 min): 0.017 Percent Uptake per Gram of Tis
- Distribution, Lens ([1]; Time 3, 180 min): 0.023 Percent Uptake per Gram of Tis
- Distribution, Lens ([1]; Time 6, 360 min): 0.021 Percent Uptake per Gram of Tis
- Distribution, Lens ([1]; Time 24, 1440 min): 0.005 Percent Uptake per Gram of Tis
- Distribution, Lens ([1]; Time 72, * 4 animals, 4320 min): 0.006 Percent Uptake per Gram of Tis
- Distribution, Lens ([1]; Time 144, 8640 min): 0.005 Percent Uptake per Gram of Tis
- Distribution, Liver ([1]; Time 1, 60 min): 5.463 Percent Uptake per Gram of Tis
- Distribution, Liver ([1]; Time 3, 180 min): 4.273 Percent Uptake per Gram of Tis
- Distribution, Liver ([1]; Time 6, 360 min): 7.188 Percent Uptake per Gram of Tis
- Distribution, Liver ([1]; Time 24, 1440 min): 3.729 Percent Uptake per Gram of Tis
- Distribution, Liver ([1]; Time 72, 4320 min): 4.841 Percent Uptake per Gram of Tis
- Distribution, Liver ([1]; Time 144, 8640 min): 2.331 Percent Uptake per Gram of Tis
- Distribution, Melanoma-Eye ([1]; Time 1, 60 min): 1.048 Percent Uptake per Gram of Tis
- Distribution, Melanoma-Eye ([1]; Time 3, 180 min): 0.976 Percent Uptake per Gram of Tis
- Distribution, Melanoma-Eye ([1]; Time 6, 360 min): 1.609 Percent Uptake per Gram of Tis
- Distribution, Melanoma-Eye ([1]; Time 24, 1440 min): 1.314 Percent Uptake per Gram of Tis
- Distribution, Melanoma-Eye ([1]; Time 72, * 4 animals, 4320 min): 0.724 Percent Uptake per Gram of Tis
- Distribution, Melanoma-Eye ([1]; Time 144, 8640 min): 0.821 Percent Uptake per Gram of Tis
- Distribution, Melanoma-Skin ([1]; Time 1, 60 min): 1.095 Percent Uptake per Gram of Tis
- Distribution, Melanoma-Skin ([1]; Time 3, 180 min): 1.051 Percent Uptake per Gram of Tis
- Distribution, Melanoma-Skin ([1]; Time 6, 360 min): 1.209 Percent Uptake per Gram of Tis
- Distribution, Melanoma-Skin ([1]; Time 24, 1440 min): 0.845 Percent Uptake per Gram of Tis
- Distribution, Melanoma-Skin ([1]; Time 72, 4320 min): 1.010 Percent Uptake per Gram of Tis
- Distribution, Melanoma-Skin ([1]; Time 144, 8640 min): 0.749 Percent Uptake per Gram of Tis
- Distribution, Muscle ([1]; Time 1): 0.159 Percent Uptake per Gram of Tis
- Distribution, Muscle ([1]; Time 3): 0.100 Percent Uptake per Gram of Tis
- Distribution, Muscle ([1]; Time 6): 0.090 Percent Uptake per Gram of Tis
- Distribution, Muscle ([1]; Time 24): 0.026 Percent Uptake per Gram of Tis
- Distribution, Muscle ([1]; Time 72): 0.041 Percent Uptake per Gram of Tis
- Distribution, Muscle ([1]; Time 144, 8640 min): 0.027 Percent Uptake per Gram of Tis
- Distribution, Normal-Eye ([1]; Time 1, 60 min): 0.200 Percent Uptake per Gram of Tis
- Distribution, Normal-Eye ([1]; Time 3, 180 min): 0.086 Percent Uptake per Gram of Tis
- Distribution, Normal-Eye ([1]; Time 6, 360 min): 0.111 Percent Uptake per Gram of Tis
- Distribution, Normal-Eye ([1]; Time 24, 1440 min): 0.054 Percent Uptake per Gram of Tis
- Distribution, Normal-Eye ([1]; Time 72, 4320 min): 0.084 Percent Uptake per Gram of Tis
- Distribution, Normal-Eye ([1]; Time 144, 8640 min): 0.047 Percent Uptake per Gram of Tis
- Distribution, Normal-Skin ([1]; Time 1, 60 min): 0.401 Percent Uptake per Gram of Tis
- Distribution, Normal-Skin ([1]; Time 3, 180 min): 0.256 Percent Uptake per Gram of Tis
- Distribution, Normal-Skin ([1]; Time 6, 360 min): 0.286 Percent Uptake per Gram of Tis
- Distribution, Normal-Skin ([1]; Time 24, 1440 min): 0.090 Percent Uptake per Gram of Tis
- Distribution, Normal-Skin ([1]; Time 72, 4320 min): 0.122 Percent Uptake per Gram of Tis
- Distribution, Normal-Skin ([1]; Time 144, 8640 min): 0.071 Percent Uptake per Gram of Tis
- Distribution, Retina ([1]; Time 1, 60 min): 0.169 Percent Uptake per Gram of Tis
- Distribution, Retina ([1]; Time 3, 180 min): 0.074 Percent Uptake per Gram of Tis
- Distribution, Retina ([1]; Time 6, 360 min): 0.251 Percent Uptake per Gram of Tis
- Distribution, Retina ([1]; Time 24, 1440 min): 0.206 Percent Uptake per Gram of Tis
- Distribution, Retina ([1]; Time 72, * 4 animals, 4320 min): 0.091 Percent Uptake per Gram of Tis
- Distribution, Retina ([1]; Time 144, 8640 min): 0.127 Percent Uptake per Gram of Tis
- Distribution, Vitreous ([1]; Time 1, 60 min): 0.031 Percent Uptake per Gram of Tis
- Distribution, Vitreous ([1]; Time 3, 180 min): 0.028 Percent Uptake per Gram of Tis
- Distribution, Vitreous ([1]; Time 6, 360 min): 0.036 Percent Uptake per Gram of Tis
- Distribution, Vitreous ([1]; Time 24, 1440 min): 0.031 Percent Uptake per Gram of Tis
- Distribution, Vitreous ([1]; Time 72, * 4 animals, 4320 min): 0.014 Percent Uptake per Gram of Tis
- Distribution, Vitreous ([1]; Time 144, 8640 min): 0.018 Percent Uptake per Gram of Tis
- Toxicity effects from the presence of lead in the blood stream [2]: avoided or minimized
